Test results reported in patent publication US7288554B2, “Ortho-substituted aryl amides for controlling invertebrate pests” (E.I. du Pont de Nemours and Company, priority 2001, dated 2007).

melting point: 69 to 73 °C
SMILES: Cc1cccc(S(=O)(=O)NC(C)C)c1NC(=O)c1cc(C(F)(F)F)nn1-c1ncccc1Cl [Compound B3, 1-(3-Chloro-2-pyridinyl)-N-[2-methyl-6-[[(1-methylethyl)amino]sulfonyl]phenyl]-3-(trifluoromethyl)-1H-pyrazole-5-carboxamide]
